Data taken from patent US6653287B1, “Use of leukemia inhibitory factor and endothelin antagonists” (Genentech, Inc., priority 1995, dated 2003).
Square brackets hold non-standard residues; d marks the D form. Peptide text beside a SMILES is read from it.

How the values were obtained:
[1] = test system: neonatal rat cardiac ventricular myocytes; test: Neonatal rat cardiac myocyte hypertrophy assay (crystal violet stain, microscopic hypertrophy score); type: cell-based
Text: A miniaturized assay is preferably used to assay the suspected antagonist(s) for hypertrophy-inhibiting activity. In this assay the medium used allows the cells to survive at a low plating density without serum. By plating directly into this medium, washing steps are eliminated so that fewer cells are removed. The plating density is important: many fewer cells and the survival is reduced; many more cells and the myocytes begin to self-induce hypertrophy.
The preferred hypertrophy assay comprises:
(a) pre-coating the wells of 96-well tissue culture plates with a medium containing calf serum, preferably D-MEM/F-12 medium containing 4% fetal calf serum, wherein preferably the wells are incubated with the medium for about eight hours at about 37°C.;
(c) plating a suspension of myocytes in the inner 60 wells at 7.5×10^4 cells per mL in D-MEM/F-12 medium supplemented with insulin, transferrin, and aprotinin;
(d) culturing the myocytes for at least 24 hours in the presence of LIF or endothelin;
(e) adding the test substance;
(f) culturing the cells with the test substance (preferably for about 24-72 hours, more preferably for about 48 hours); and
(g) evaluating hypertrophy, preferably after crystal violet stain, by microscopic examination.
(§1) Neonatal rat cardiac ventricular myocytes were cultured in 96-well plates 35 as described by Pennica et al., supra. Briefly, myocytes were isolated from one-day-old Sprague-Dawley rats by a series of collagenase digestions followed by Percoll™ gradient purification. Iwaki et al., J Biol Chem., 265: 13809-13817 (1990). The myocytes, which band at the lower gradient interface, were collected, washed twice, and re-suspended in D-MEM/F12 medium with 15% (vol/vol) fetal calf serum. The cells were diluted into serum-free D-MEM/F12 medium supplemented with 10 μg/mL transferrin, 1 μg/mL insulin, 1 μg/mL aprotinin, 2-mmol/L glutamine, 100 U/mL penicillin G, and 100 μg/mL streptomycin (assay medium) to a final density of 7.5×10^4 cells per mL. The final serum concentration of this assay medium with cells was <0.1%. Myocytes were plated 200 μL per well in 96-well, flat-bottomed plates that had previously been coated with D-MEM/F12 medium with 4% (vol/vol) fetal calf serum for 8 hours at 37° C. After 24 hours at 37° C. in 5% CO2, test substances were added. Forty-eight hours after the test substances were added, the cells were fixed and stained with 0.5% (wt/vol) crystal violet in methanol and formaldehyde, and the hypertrophy was scored on a scale of 1 to 7 by microscopic evaluation. Untreated cells were used as the negative control and scored as a 3. Toxic effects were scored from 0 to 2. The positive control in each assay was 100 μmol/L phenylephrine, which was scored as 7.

[2] = test system: neonatal rat cardiac ventricular myocytes; test: Myocyte morphology and contractile fiber organization (phallacidin f-actin stain, confocal microscopy); type: cell-based; conditions: for organization of contractile fibers (f-actin): 48 hours exposure, fluorescent phallacidin stain
Procedure: as §1
The myocytes were plated in 4-chamber Lab Tek™ glass chamber slides pre-coated for 8 hours with 4% (vol/vol) fetal calf serum in D-MEM/F12 medium and cultured for 24 hours. They were exposed to test substances for 48 hours and then washed 3× in phosphate buffered saline (PBS) and fixed in 95% (vol/vol) ethanol for 15 minutes. The slides were then washed 3×0 in PBS with 0.1% (vol/vol) Tween-20™ surfactant, blocked for 30 minutes with 1% (wt/vol) BSA in PBS with 0.1% Tween-20™ surfactant, and incubated with phallacidin conjugated to BODIPY FL™ brand reagent (10 μg/mL in 1% BSA in PBS) (Molecular Probes, Eugene Oreg.) for 40 minutes to stain the f-actin present in the contractile fibers. The slides were then washed 3× with PBS in 0.1% Tween-20™ surfactant. Images of the phallacidin-stained cells were acquired on a Ultima™ laser-scanning confocal microscope (Meridian Instruments, Okemos, Mich.). A 1.4 NA 60×™ oil-immersion objective was utilized coupled with 488-nm excitation, with the resulting fluorescence measured following a 525-nm long-pass filter. […] The final images were constructed with a maximum fluorescence projection algorithm by compressing the multiple z or depth images into a single two-dimensional representation.

[3] = test system: neonatal rat cardiac ventricular myocytes; conditions: neonatal rat cardiac myocytes in culture; Pennica et al. 1995; cited from earlier work

With CC[C@H](C)[C@H](NC(=O)[C@H](CC(=O)O)NC(=O)[C@H](CC(C)C)NC(=O)[C@H](Cc1c[nH]cn1)NC(=O)[C@@H]1CSSC[C@H](N)C(=O)N[C@@H](CO)C(=O)N[C@H]2CSSC[C@H](NC(=O)[C@H](CCC(=O)O)NC(=O)[C@H](CCCCN)NC(=O)[C@H](CC(=O)O)NC(=O)[C@H](CCSC)NC(=O)[C@H](CC(C)C)NC(=O)[C@H](CO)NC(=O)[C@H](CO)NC2=O)C(=O)N[C@@H](C(C)C)C(=O)N[C@@H](Cc2ccc(O)cc2)C(=O)N[C@@H](Cc2ccccc2)C(=O)N1)C(=O)N[C@H](C(=O)N[C@@H](Cc1c[nH]c2ccccc12)C(=O)O)[C@@H](C)CC [endothelin-1] the “hypertrophic response (myocyte cell size and ANP production)” value ([1]; purified factors, even at nanomolar concentrations) was “partial hypertrophic responses”, the morphology of myocytes ([2]; 48-hour exposure to maximal concentrations) was “more compact with no processes” and the “organization of contractile fibers (f-actin)” value [2] was “not organized in parallel, had a tangled appearance, and did not show prominent banding”.

With CC(C)C[C@@H]1NC(=O)[C@@H](C(C)C)NC(=O)[C@@H]2CCCN2C(=O)[C@@H](CC(=O)O)NC(=O)[C@@H](Cc2c[nH]c3ccccc23)NC1=O [BQ-123] (cyclo(L[dW][dD]P[dV])) the “inhibition of NCM hypertrophy activity” value ([1]; FIG. 3, 100 μmol/L BQ-123, 50 μg/mL LIF Mab) was “partially inhibited”, the “blocking of hypertrophy activity induced by endothelin-1” value ([1]; FIG. 4A/5A, BQ-123 1-100 μmol/L, LIF Mab 0.5-50 μg/mL) was “blocked” and the “blocking/neutralization of hypertrophy activity induced by mouse LIF” value ([1]; FIG. 4B/5B, BQ-123 1-100 μmol/L, LIF Mab 0.5-50 μg/mL) was “not”. The “blocking of hypertrophy activity induced by phenylephrine” value ([1]; FIG. 4C/5C, BQ-123 1-100 μmol/L, LIF Mab 0.5-50 μg/mL) was “not”, the “blocking of hypertrophy activity induced by CT-1” value ([1]; FIG. 4D/5D, BQ-123 1-100 μmol/L, LIF Mab 0.5-50 μg/mL) was “not” and the “effect on myocyte morphology by itself” value ([1]; inhibitor alone, no inducer) was “no effect”. For the same molecule, the “morphology of myocytes treated with NCM plus inhibitor” value ([2]; NCM and BQ-123 or LIF Mab) was “resembled those treated with purified LIF”.

With CNC[C@H](O)c1cccc(O)c1 [phenylephrine] the “hypertrophy score (positive control)” value ([1]; 100 μmol/L phenylephrine, scale 1 to 7, untreated 3) was 7 and the “organization of contractile fibers (f-actin)” value [2] was “organized in parallel arrays with prominent banding”.

B1: CT-1: cardiotrophin-1, member of the family of proteins that bind to GH/cytokine receptors (protein, UniProt Q16619 1-201, looked up)
Cardiotrophin-1: MSRREGSLEDPQTDSSVSLLPHLEAKIRQTHSLAHLLTKYAEQLLQEYVQLQGDPFGLPSFSPPRLPVAGLSAPAPSHAGLPVHERLRLDAAALAALPPLLDAVCRRQAELNPRAPRLLRRLEDAARQARALGAAVEALLAALGAANRGPRAEPPAATASAASATGVFPAKVLGLRVCGLYREWLSRTEGDLGQLLPGGSA
For B1, the “hypertrophy activity among proteins that bind GH/cytokine receptors” value [3] is listed as “most potent hypertrophy activity”.
